Measurements from US20260308185A1, “STAT DEGRADERS AND USES THEREOF” (Recludix Pharma, Inc., priority 2023, published 2026).

Assays:
[1] = test system: pSTAT3 (pY705-STAT3) in PBMC; test: MSD-pSTAT-PBMC Assay (pSTAT3); assay type: cell-based; conditions: compound 3 hrs, then 10 ng/mL IL-6 for 10 min
From the text: Cryopreserved Peripheral Blood Mononuclear Cells (PBMC) are from AllCells. Recombinant Human […] and IL-6 are from Peprotech. Mouse monoclonal anti-STAT3 antibody, rabbit monoclonal anti-pY705-STAT3 antibody, rabbit monoclonal Anti-pY641-STAT6 antibody, and lysis buffer are from Cell Signaling Technology (CST). Mouse monoclonal anti-STAT6 antibody is from BioLegend. Assay plates, blocker, and anti-rabbit secondary antibody are from Meso Scale Discovery (MSD).
Cryopreserved PBMCs were thawed out and allowed to recover overnight in IMDM+10% heat-inactivated FBS prior to plating 50,000 (STAT3) or 25,000 (STAT6) cells per well in 96-well U-bottom tissue culture plates. Cells were treated with compound for 3 hrs, then stimulated with 10 ng/mL IL-6 (STAT3) or 1 ng/mL IL-4 (STAT6) for 10 min. Cells were then spun down and washed with ice-cold PBS prior to lysing the cell pellet with 1× lysis buffer (CST) with 1× HALT protease and phosphatase inhibitor cocktail (Thermo). Lysates were transferred to and incubated overnight at 4° C. with shaking in QuickPlex 96-well high bind assay plates (MSD) pre-coated overnight with 30 μL per well of 0.6 μg/mL mouse monoclonal anti-STAT3 antibody (STAT3) or 2 μg/mL mouse monoclonal anti-STAT6 antibody (STAT6) in 1×PBS, and pre-blocked for 1 hour with 3% Blocker-A (MSD). Captured protein in the assay plates were then washed and probed with 25 μL per well of 0.25 μg/ml rabbit monoclonal anti-pY705-STAT3 antibody (STAT3) or 0.18 μg/ml rabbit monoclonal Anti-pY641-STAT6 antibody (STAT6) in 1% Blocker-A for 1 hour at room temperature with shaking, then washed and probed with 25 ul per well of 1 ug/ml Sulfo-TAG Labeled Goat Anti-Rabbit Antibody (MSD) in 1% Blocker-A for 1 hour at room temperature with shaking. Assay plates were then washed and 150 μL of 1× Read Buffer-T (MSD) was added to each well prior to reading on an SQ120 MSD Plate Reader. Assay signal from each sample was subtracted by the signal from unstimulated control wells and normalized to DMSO control wells, IC50 values were calculated using Graph Pad Prism Dose-Response Nonlinear Regression with variable slope. For both pSTAT3 and pSTAT6 A=≤100 nM; B=>100-1000 nM; C=>1000-3000 nM; and D=>3 μM.

[2] = target: T1, Recombinant STAT3 protein (STAT3(G127-I722)) (Homo sapiens, UniProt P40763); test: STAT3 Fluorescence Polarization (FP) Assay; assay type: binding; conditions: 25 nM STAT3(G127-I722), 2 nM 5-FAM-GpYLPQTV-NH2 probe, pH 7.4, 45-minute incubation at room temperature
T1 construct: Recombinant STAT3 protein (STAT3(G127-I722))
T1 sequence (P40763 127-722): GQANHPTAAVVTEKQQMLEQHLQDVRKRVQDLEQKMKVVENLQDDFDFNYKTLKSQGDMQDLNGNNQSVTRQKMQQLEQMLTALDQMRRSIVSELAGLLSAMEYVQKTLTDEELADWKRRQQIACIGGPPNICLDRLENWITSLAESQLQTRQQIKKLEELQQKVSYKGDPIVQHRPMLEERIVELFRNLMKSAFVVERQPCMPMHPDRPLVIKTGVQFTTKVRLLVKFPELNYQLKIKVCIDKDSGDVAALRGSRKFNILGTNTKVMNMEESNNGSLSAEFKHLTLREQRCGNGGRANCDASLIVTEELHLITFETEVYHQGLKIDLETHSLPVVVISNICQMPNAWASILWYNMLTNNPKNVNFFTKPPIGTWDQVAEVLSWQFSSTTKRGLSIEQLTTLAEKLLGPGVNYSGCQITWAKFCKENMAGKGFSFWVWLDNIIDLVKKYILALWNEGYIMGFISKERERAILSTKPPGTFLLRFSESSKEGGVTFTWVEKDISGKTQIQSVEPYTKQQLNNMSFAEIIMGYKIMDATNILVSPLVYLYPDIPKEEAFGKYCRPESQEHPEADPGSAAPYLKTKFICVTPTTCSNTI
Experimental: An FP assay was developed to determine IC50 values for test substances. Recombinant STAT3 protein (STAT3(G127-I722)) at 25 nM was combined with a fluorescently labeled, phosphotyrosine peptide probe (5-FAM-GpYLPQTV-NH2) at 2 nM in FP buffer (10 mM HEPES pH 7.4, 50 mM NaCl. 1 mM EDTA, 0.05% Tween 20, 2 mM DTT). 50 μL of STAT3-probe mixture was added to serial diluted compounds in black, 96-well plates (Greiner BioOne 655076) to a final concentration of 1% DMSO. Reaction components were mixed, and FP was measured after 45-minute incubation at room temperature using a Tecan Spark multimode plate reader. FP signal (mP) was plotted against the log concentration of the test substances and IC50 values were calculated by nonlinear regression analysis using GraphPad Prism software. For STAT3 FP assay, A=≤100 nM; B=>100-1000 nM; C=>1-10 μM; and D=>10 μM.

[3] = target: T2, Recombinant STAT6 protein (STAT6(W123-T658)) (Homo sapiens, UniProt P42226); test: STAT6 Fluorescence Polarization (FP) Assay; assay type: binding; conditions: 250 nM STAT6(W123-T658), 2 nM 5-FAM-Ap[…]-NH2 probe, pH 7.4, 45-minute incubation at room temperature
T2 construct: Recombinant STAT6 protein (STAT6(W123-T658))
T2 sequence (P42226 123-658): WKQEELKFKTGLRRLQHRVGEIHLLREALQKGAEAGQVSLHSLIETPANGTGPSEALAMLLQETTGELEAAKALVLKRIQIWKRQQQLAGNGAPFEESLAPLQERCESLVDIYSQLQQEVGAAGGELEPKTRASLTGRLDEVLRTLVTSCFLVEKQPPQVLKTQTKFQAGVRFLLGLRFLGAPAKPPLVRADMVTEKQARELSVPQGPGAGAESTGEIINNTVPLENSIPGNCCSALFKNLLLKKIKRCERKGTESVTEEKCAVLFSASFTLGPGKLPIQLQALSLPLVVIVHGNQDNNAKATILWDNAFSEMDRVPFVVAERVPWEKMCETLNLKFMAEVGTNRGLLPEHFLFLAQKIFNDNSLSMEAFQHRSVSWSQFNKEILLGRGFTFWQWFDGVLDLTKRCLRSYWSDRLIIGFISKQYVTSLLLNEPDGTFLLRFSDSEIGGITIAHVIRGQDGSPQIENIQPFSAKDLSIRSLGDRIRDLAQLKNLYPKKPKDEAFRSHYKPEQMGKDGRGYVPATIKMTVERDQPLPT
Experimental: An FP assay was developed to determine IC50 values for test substances. Recombinant STAT6 protein (STAT6(W123-T658)) at 250 nM was combined with a fluorescently labeled, phosphotyrosine peptide probe (5-FAM-Ap[…]-NH2) at 2 nM in FP buffer (10 mM HEPES pH 7.4, 50 mM NaCl, 1 mM EDTA, 0.05% Tween 20, 2 mM DTT). 50 μL of STAT6-probe mixture was added to serial diluted compounds in black, 96-well plates (Greiner BioOne 655076) to a final concentration of 1% DMSO. Reaction components were mixed, and FP w as measured after 45-minute incubation at room temperature using a Tecan Spark multimode plate reader. FP signal (mP) was plotted against the log concentration of the test substances and IC50 values were calculated by nonlinear regression analysis using GraphPad Prism software. For STAT6 FP assay. A=≤300 nM; B=>300-3000 nM; C=>3-30 μM; and D=>30 μM.

Row | Compound | IC50 [1] [µM] | IC50 [2] [µM] | IC50 [3] [µM]
1 | O=C1CCC(N2Cc3c(C#CCCCCCC(=O)NC4(c5ccccn5)CN(C(=O)[C@@H]5CC[C@@H]6C[C@H]7C[C@H]7C[C@H](NC(=O)c7cc8cc(C(F)(F)P(=O)(O)O)ccc8s7)C(=O)N65)C4)cccc3C2=O)C(=O)N1 (stereo partly drawn) [Compound 1, ((2-(((3S,6S,7aS,8aR,9aR)-3-(3-(8-(2-(2,6-dioxopiperidin-3-yl)-1-oxoisoindolin-4-yl)oct-7-ynamido)-3-(pyridin-2-yl)azetidine-1-carbonyl)-5-oxodecahydro-1H-cyclopropa[d]pyrrolo[1,2-a]azocin-6-yl)carbamoyl)benzo[b]thiophen-5-yl)difluoromethyl)phosphonic acid] | > 3 | < 0.1 | 3 to 30
2 | CN(CCOc1ccc(C2CCC(=O)NC2=O)cc1)c1ccncc1C1CN(C(=O)[C@@H]2CC[C@@H]3C[C@H]4C[C@H]4C[C@H](NC(=O)c4cc5cc(C(F)(F)P(=O)(O)O)ccc5s4)C(=O)N32)C1 (stereo partly drawn) [Compound 11, ((2-(((3S,6S,7aS,8aR,9aR)-3-(3-(4-((2-(4-(2,6-dioxopiperidin-3-yl)phenoxy)ethyl)(methyl)amino)pyridin-3-yl)azetidine-1-carbonyl)-5-oxodecahydro-1H-cyclopropa[d]pyrrolo[1,2-a]azocin-6-yl)carbamoyl)benzo[b]thiophen-5-yl)difluoromethyl)phosphonic acid] | > 3 | < 0.1 | 3 to 30
3 | O=C1CCC(c2ccc(OCC(=O)N3CCN(c4ccncc4C4CN(C(=O)[C@@H]5CC[C@@H]6C[C@H]7C[C@H]7C[C@H](NC(=O)c7cc8cc(C(F)(F)P(=O)(O)O)ccc8s7)C(=O)N65)C4)CC3)cc2)C(=O)N1 (stereo partly drawn) [Compound 21, ((2-(((3S,6S,7aS,8aR,9aR)-3-(3-(4-(4-(2-(4-(2,6-dioxopiperidin-3-yl)phenoxy)acetyl)piperazin-1-yl)pyridin-3-yl)azetidine-1-carbonyl)-5-oxodecahydro-1H-cyclopropa[d]pyrrolo[1,2-a]azocin-6-yl)carbamoyl)benzo[b]thiophen-5-yl)difluoromethyl)phosphonic acid] | > 3 | < 0.1 | 3 to 30
